{"source": "paper PMC9873984", "about": "“Membrane cholesterol regulates inhibition and substrate transport by the glycine transporter, GlyT2” (Life Science Alliance, 2023)", "key": {"WT GlyT2": {"target": "T1, WT GlyT2 (Homo sapiens, UniProt Q9Y345)", "T1 sequence (Q9Y345 1-797)": "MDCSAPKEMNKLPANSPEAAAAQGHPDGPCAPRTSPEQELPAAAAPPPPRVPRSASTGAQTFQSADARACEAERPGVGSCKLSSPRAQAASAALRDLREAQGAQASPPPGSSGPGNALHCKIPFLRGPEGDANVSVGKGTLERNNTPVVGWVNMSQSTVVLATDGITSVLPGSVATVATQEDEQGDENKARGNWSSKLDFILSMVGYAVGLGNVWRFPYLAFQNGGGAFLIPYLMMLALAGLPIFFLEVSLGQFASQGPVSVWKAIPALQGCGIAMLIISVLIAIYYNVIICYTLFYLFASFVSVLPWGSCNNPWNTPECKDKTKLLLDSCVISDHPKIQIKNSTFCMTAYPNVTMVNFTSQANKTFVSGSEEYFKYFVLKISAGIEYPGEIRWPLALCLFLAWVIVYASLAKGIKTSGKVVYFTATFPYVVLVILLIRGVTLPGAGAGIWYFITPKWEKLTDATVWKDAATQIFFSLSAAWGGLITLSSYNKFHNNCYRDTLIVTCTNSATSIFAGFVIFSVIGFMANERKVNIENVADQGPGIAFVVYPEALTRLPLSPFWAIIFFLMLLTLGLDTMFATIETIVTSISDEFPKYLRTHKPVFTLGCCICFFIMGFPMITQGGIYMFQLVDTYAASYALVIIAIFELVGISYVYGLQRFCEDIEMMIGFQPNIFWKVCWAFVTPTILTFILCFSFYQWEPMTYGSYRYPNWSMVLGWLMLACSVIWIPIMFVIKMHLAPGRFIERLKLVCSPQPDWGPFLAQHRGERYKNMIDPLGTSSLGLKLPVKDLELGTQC", "conditions": "read-out: Glycine EC50; WT GlyT2 in Xenopus laevis oocytes; glycine 1 μM – 3 mM", "procedure": "(§1) The transport activity of GlyT2 is an electrogenic process as it couples the transport of glycine to the co-transport of 3 Na^+ and 1 Cl^− and thus can be measured using two-electrode voltage-clamp electrophysiology. Oocytes expressing GlyTs were voltage-clamped at −60 mV, and glycine-induced whole-cell currents were measured using a GeneClamp 500 amplifier (Axon Instruments), and a PowerLab 2/26 chart recorder (ADInstruments) and LabChart Software (ADInstruments).\n(§2) Functionality of WT and mutant GlyT2 transporters was assessed by applying increasing concentrations of glycine (1–3,000 µM) in ND96 until a stable current was achieved. Glycine concentrations were applied individually and completely removed from the system via washing with recording buffer before proceeding to the next concentration. EC50 values for each transporter were determined by fitting concentration–response data to the modified Michaelis–Menten equation: I=([Gly].Imax)/(EC50+[Gly]), where I is current in nA, [Gly] is the concentration of glycine, Imax is the current generated by a maximal concentration of glycine, and EC50 is the concentration of glycine that generates a half-maximal current."}, "GlyT2 F515V mutant": {"target": "GlyT2 F515V mutant (Homo sapiens, UniProt Q9Y345, F515V)", "sequence (Q9Y345 whole entry F515V)": "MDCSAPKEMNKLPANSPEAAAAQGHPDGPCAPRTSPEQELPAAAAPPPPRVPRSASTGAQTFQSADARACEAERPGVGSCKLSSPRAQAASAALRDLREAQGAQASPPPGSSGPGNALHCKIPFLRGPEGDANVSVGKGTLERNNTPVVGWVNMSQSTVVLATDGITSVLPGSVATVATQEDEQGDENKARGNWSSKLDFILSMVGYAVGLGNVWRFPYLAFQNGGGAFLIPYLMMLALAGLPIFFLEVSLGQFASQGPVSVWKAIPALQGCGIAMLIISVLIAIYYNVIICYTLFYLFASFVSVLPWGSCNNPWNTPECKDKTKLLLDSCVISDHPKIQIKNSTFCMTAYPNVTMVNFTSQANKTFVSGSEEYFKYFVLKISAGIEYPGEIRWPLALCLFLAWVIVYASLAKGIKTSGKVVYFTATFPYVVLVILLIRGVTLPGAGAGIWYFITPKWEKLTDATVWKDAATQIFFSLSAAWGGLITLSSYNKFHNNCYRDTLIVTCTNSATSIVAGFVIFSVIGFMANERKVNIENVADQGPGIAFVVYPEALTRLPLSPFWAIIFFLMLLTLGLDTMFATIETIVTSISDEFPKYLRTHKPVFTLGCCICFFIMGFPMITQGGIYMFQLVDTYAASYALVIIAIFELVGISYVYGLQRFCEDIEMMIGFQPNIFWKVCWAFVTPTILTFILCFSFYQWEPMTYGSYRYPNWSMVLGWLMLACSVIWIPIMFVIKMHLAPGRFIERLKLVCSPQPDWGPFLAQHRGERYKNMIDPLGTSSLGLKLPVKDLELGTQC", "conditions": "read-out: Glycine EC50; F515V (TM7)", "description": "(§3) GlyT2a (referred to herein as GlyT2) was subcloned into the plasmid oocyte transcription vector (pOTV) for expression in Xenopus laevis oocytes. Oligonucleotide primers incorporating desired mutations were synthesized by Sigma-Aldrich and used to generate point mutations in the GlyT2 cDNA/pOTV construct using the Q5 site-directed mutagenesis kit (New England Biolabs [Genesearch]). Amplified PCR products were transformed into chemically competent E. coli cells and purified using the GeneJET Plasmid Miniprep Kit (Thermo Fisher Scientific). Purified plasmid DNA was sequence-verified by the Australian Genome Research Facility. pOTV constructs were linearized with the restriction enzyme SpeI (New England Biolabs [Genesearch]), and RNA was transcribed by T7 RNA polymerase using the mMESSAGE mMACHINE T7 kit (Thermo Fisher Scientific).\nas §1, §2"}, "GlyT2 F515W mutant": {"target": "T2, GlyT2 F515W mutant (Homo sapiens, UniProt Q9Y345, F515W)", "T2 sequence (Q9Y345 1-797 F515W)": "T1 sequence (Q9Y345 1-797) with F515W", "conditions": "read-out: Glycine EC50; F515W (TM7)", "description": "as §3, §1, §2"}}, "note": "Numbering of substitutions follows the chain as printed.", "data": [{"smiles": "NCC(=O)O", "note": "[Glycine, glycine]", "values": [{"measurement": "EC50", "setting": "WT GlyT2", "result": 18, "unit": "µM"}, {"measurement": "EC50", "setting": "GlyT2 F515V mutant", "result": 7.8, "unit": "µM"}, {"measurement": "EC50", "setting": "GlyT2 F515W mutant", "result": 7.6, "unit": "µM"}]}]}
